SMILES strings stand for the structures.

The text below walks through data of patent US20170196998A1, “NANOPARTICLE CONTRAST AGENT FOR EARLY DIAGNOSIS OF ALZHEIMER'S DISEASE BY MAGNETIC RESONANCE IMAGING (MRI)” (The Chinese University of Hong Kong, priority 2016, published 2017).

For data set [1], the target named is amyloid plaques (Homo sapiens, UniProt P05067). Kind of data set: Confocal fluorescent and phase-contrast imaging of amyloid plaque binding on consecutive brain sections. The note with it: applied to consecutive sections of APP transgenic mouse brain, FIG. 5. From the text:
From top to bottom: Thioflavin T, curcumin, and curcumin-conjugated iron oxide.
The formulation of Curcumin-conjugated magnetic nanoparticles is described herein.

The nature of data set [2]: Adsorption isotherm of curcumin on iron oxide (Langmuir model). The note with it: room temperature, monolayer. Type of data set: physicochemical. As to the method:
Based on the absorption isotherm study, curcumin preferentially binds the iron oxide surface, with a calculated maximum loading of 75 mg of curcumin per gram of iron oxide. FIGS. 2 & 3 show the adsorption isotherm and Langmuir model, which indicate that Curcumin is forming a monolayer and binds at a homogeneous site on the iron oxide surface.

amyloid plaques, sequence (P05067 672-713 limits assumed): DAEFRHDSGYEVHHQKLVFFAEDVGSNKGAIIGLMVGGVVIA

For `COc1cc(/C=C/C(=O)CC(=O)/C=C/c2ccc(O)c(OC)c2)ccc1O` [curcumin], the amyloid plaque binding result in data set [1] was “bind amyloid plaques”. Also, in data set [2], the “calculated maximum loading of curcumin on iron oxide” value is on record as 75 mg of curcumin per gram of iron oxide.

Turning to `Cc1ccc2c(c1)sc(-c1ccc(N(C)C)cc1)[n+]2C.[Cl-]` [Thioflavin T], in data set [1], the amyloid plaque binding entry is given as “bind amyloid plaques”.
